Assay results published in US12440496B2, “Natriuretic peptide receptor a agonists useful for the treatment of cardiometabolic diseases, kidney disease and diabetes” (Merck Sharp & Dohme LLC, priority 2019, dated 2025).

Target: T1, hNPRA (Homo sapiens, UniProt P16066)
T1 construct: expressed in transfected cells
T1 sequence (P16066 33-1061): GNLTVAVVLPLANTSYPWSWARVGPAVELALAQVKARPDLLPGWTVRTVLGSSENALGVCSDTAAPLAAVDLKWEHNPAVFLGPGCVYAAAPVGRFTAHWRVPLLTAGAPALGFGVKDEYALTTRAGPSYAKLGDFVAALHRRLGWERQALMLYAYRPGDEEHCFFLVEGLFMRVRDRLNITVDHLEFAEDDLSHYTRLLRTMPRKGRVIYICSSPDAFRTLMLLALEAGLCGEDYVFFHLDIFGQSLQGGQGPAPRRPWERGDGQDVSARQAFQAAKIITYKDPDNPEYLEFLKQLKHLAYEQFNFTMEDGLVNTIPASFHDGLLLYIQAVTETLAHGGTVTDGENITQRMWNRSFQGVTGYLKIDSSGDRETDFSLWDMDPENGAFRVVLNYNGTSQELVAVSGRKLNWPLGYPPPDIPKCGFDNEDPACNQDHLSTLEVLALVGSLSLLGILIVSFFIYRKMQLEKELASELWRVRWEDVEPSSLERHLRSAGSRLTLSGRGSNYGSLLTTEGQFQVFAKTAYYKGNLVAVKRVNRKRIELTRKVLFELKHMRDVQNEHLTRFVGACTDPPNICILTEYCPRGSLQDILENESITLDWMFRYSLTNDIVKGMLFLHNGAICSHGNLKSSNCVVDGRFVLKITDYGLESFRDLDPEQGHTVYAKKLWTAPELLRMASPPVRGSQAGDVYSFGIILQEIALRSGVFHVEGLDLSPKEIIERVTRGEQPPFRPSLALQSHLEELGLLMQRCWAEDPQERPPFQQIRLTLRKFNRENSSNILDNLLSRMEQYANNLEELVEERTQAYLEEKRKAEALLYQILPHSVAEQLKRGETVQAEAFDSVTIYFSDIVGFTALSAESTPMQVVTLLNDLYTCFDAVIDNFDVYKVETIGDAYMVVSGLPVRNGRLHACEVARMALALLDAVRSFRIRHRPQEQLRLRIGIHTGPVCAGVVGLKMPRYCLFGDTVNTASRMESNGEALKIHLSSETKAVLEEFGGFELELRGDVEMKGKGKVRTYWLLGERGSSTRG
Assay: NPRA Functional Cell Assay (cGMP HTRF, NPRA HEK JumpIn stable cells)
Assay type: cell-based
Settings: cGMP production, 1 hour at 37° C., 10-point dose response
Method in brief: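 cGMP HTRF read-out after 1 hour compound treatment at 37° C. of human NPRA-expressing HEK JumpIn cells, 1500 cells/well, in buffer with phosphodiesterase inhibitors IBMX and RO20 (100 uM each). Signal converted to [cGMP] by calibration curve; EC50s fitted by 4-parameter logistic; 50 nM h-ANP as positive response.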

| EC50 [nM] | SMILES |
| --- | --- |
| 140 | CC(C)(C)[C@H]1CCc2nc3sc(C(=O)N[C@H](CCN4CCC(O)CC4)c4ccc(-c5c[nH]c(=O)c(F)c5)cc4)nc3cc2C1 [Example 236, (S)-7-(tert-butyl)-N-((R)-1-(4-(5-fluoro-6-oxo-1,6-dihydropyridin-3-yl)phenyl)-3-(4-hydroxypiperidin-1-yl)propyl)-5,6,7,8-tetrahydrothiazolo[5,4-b]quinoline-2-carboxamide] |
| 96.5 | CC(C)(C)[C@H]1CCc2nc3sc(C(=O)N[C@H](CCN4CCC(O)CC4)c4cccc(C(=O)N[C@@H]5CCNC5)c4)nc3cc2C1 (racemic) [Example 130, rac-(7S)-7-tert-butyl-N-[rac-(1R)-3-(4-hydroxy-1-piperidyl)-1-[3-[[rac-(3R)-pyrrolidin-3-yl]carbamoyl]phenyl]propyl]-5,6,7,8-tetrahydrothiazolo[5,4-b]quinoline-2-carboxamide] |
| 566 | CN(C)CC[C@@H](NC(=O)c1nc2cc3c(nc2s1)CC[C@H](C(C)(C)C)C3)c1cccc(C(=O)N2CC(N)C2)c1 (racemic) [Example 94, rac-(7S)-7-tert-butyl-N-[rac-(1R)-1-[3-(3-aminoazetidine-1-carbonyl)phenyl]-3-(dimethylamino)propyl]-5,6,7,8-tetrahydrothiazolo [5,4-b]quinoline-2-carboxamide] |
| 1500 | CC(C)(C)[C@H]1CCc2nc3sc(C(=O)N[C@H](CCN4CCC(O)CC4)c4ccc(Oc5ccc(O)cc5)nc4)nc3cc2C1 (racemic) [Example 194, ammonium; 4-[[5-[rac-(1R)-3-(4-hydroxy-1-piperidyl)-1-[[rac-(7S)-7-tert-butyl-5,6,7,8-tetrahydrothiazolo[5,4-b]quinoline-2-carbonyl]amino]propyl]-2-pyridyl]oxy]phenolate] |
| 1260 | CC(C)(C)[C@H]1CCc2nc3sc(C(=O)N[C@H](CCN4CCC(n5ccnc5)CC4)c4cccc(NS(C)(=O)=O)c4)cc3cc2C1 (racemic) [Example 17, ammonium; methylsulfonyl-[3-[rac-(1R)-3-(4-imidazol-1-y1-1-piperidy1)-1-[[rac-(6S)-6-tert-butyl-5,6,7,8-tetrahydrothieno[2,3-b]quinoline-2-carbonyl]amino]propyl]phenyl]azanide] |
| 230 | CN(C)CC[C@@H](NC(=O)c1nc2cc3c(nc2s1)CC[C@H](C(C)(C)C)C3)c1cccc(C(=O)NCC2CCN(C)C2)c1 (mixture of isomers) [Example 88, rac-(7S)-7-tert-butyl-N-[rac-(1R)-3-(dimethylamino)-1-[3-[(1-methylpyrrolidin-3-yl)methylcarbamoyl]phenyl]propyl]-5,6,7,8-tetrahydrothiazolo[5,4-b] quinoline-2-carboxamide] |
| 1420 | Cn1cncc1-c1ccc([C@@H](CCN2CCC(O)CC2)NC(=O)c2nc3cc4c(nc3s2)CC[C@H](C(C)(C)C)C4)cc1 (racemic) [Example 179, rac-(7S)-7-tert-butyl-N-[rac-(1R)-3-(4-hydroxy-1-piperidyl)-1-[4-(3-methylimidazol-4-yl)phenyl]propyl]-5,6,7,8-tetrahydrothiazolo[5,4-b]quinoline-2-carboxamide] |
| 575 | CC(C)(C)[C@H]1CCc2nc3sc(C(=O)N[C@H](CCN[C@@H]4C[C@@H](O)[C@@H](O)C4)c4ccc(-c5ccc(=O)[nH]c5)cc4)cc3cc2C1 (racemic) [Example 37, [rac-(3R,4S)-3,4-dihydroxycyclopentyl]-[rac-(3R)-3-[4-(6-oxo-1H-pyridin-3-yl)phenyl]-3-[[rac-(6S)-6-tert-butyl-5,6,7,8-tetrahydrothieno[2,3-b]quinoline-2-carbonyl]amino]propyl] ammonium;formate] |
| 557 | CC(C)(C)[C@H]1CCc2nc3sc(C(=O)N[C@H](CCNC4CCOCC4)c4ccc(-c5ccc(=O)[nH]c5)cc4)cc3cc2C1 (racemic) [Example 36, [rac-(3R)-3-[4-(6-oxo-1H-pyridin-3-yl)phenyl]-3-[rac-(6S)-6-tert-butyl-5,6,7,8-tetrahydrothieno[2,3-b]quinoline-2-carbonyl]amino]propyl]-tetrahydropyran-4-yl-ammonium;formate] |
| 686 | CC(C)(C)[C@H]1CCc2nc3sc(C(=O)N[C@H](CCN4CCC(O)CC4)c4cccc(C(=O)NCC5CCNC5)c4)nc3cc2C1 (mixture of isomers) [Example 152, rac-(7S)-7-tert-butyl-N-[rac-(1R)-3-(4-hydroxy-1-piperidyl)-1-[3-(pyrrolidin-3-ylmethylcarbamoyl)phenyl]propyl]-5,6,7,8-tetrahydrothiazolo[5,4-b]quinoline-2-carboxamide] |

The remaining lines, values behind:

| SMILES | EC50 [nM] |
| --- | --- |
| CC(C)(C)[C@H]1CCc2nc3sc(C(=O)N[C@H](CCN4CCC(O)CC4)c4ccc(-c5cc(F)c(O)c(F)c5)cc4)nc3cc2C1 (racemic) [Example 184, rac-(7S)-7-tert-butyl-N-[rac-(1R)-1-[4-(3,5-difluoro-4-hydroxy-phenyl)phenyl]-3-(4-hydroxypiperidin-1-ium-1-yl)propyl]-5,6,7,8-tetrahydrothiazolo[5,4-b]quinoline-2-carboxamide; 2,2,2-trifluoroacetate] | 1700 |
| CC(C)(C)[C@H]1CCc2nc3sc(C(=O)N[C@H](CCN4CC5CC4CO5)c4ccc(-c5ccc(=O)[nH]c5)cc4)cc3cc2C1 (mixture of isomers) [Example 53, rac-(6S)-6-tert-butyl-N-[rac-(1R)-3-(2-oxa-5-azoniabicyclo[2.2. 1]heptan-5-yl)-1-[4-(6-oxo-1H-pyridin-3-yl)phenyl]propyl]-5,6,7,8-tetrahydrothieno[2,3-b]quinoline-2-carboxamide;formate] | 755 |
| CC(C)(C)[C@H]1CCc2nc3sc(C(=O)N[C@H](CCN4CCC(c5nn[nH]n5)C4)c4ccc(-c5ccc(=O)[nH]c5)cc4)cc3cc2C1 (mixture of isomers) [Example 58, rac-(6S)-6-tert-butyl-N-[rac-(1R)-1-[4-(6-oxo-1H-pyridin-3-yl)phenyl]-3-[3-(2H-tetrazol-5-yl)pyrrolidin-1-ium-1-yl]propyl]-5,6,7,8-tetrahydrothieno[2,3-b]quinoline-2-carboxamide;formate] | 915 |
| CC(C)(C)[C@H]1CCc2nc3sc(C(=O)NC(CCN4CCCC4)c4ccncc4)nc3cc2C1 (stereo partly drawn) [Example 272, (7S)-7-(tert-butyl)-N-(1-(pyridin-4-yl)-3-(pyrrolidin-1-yl)propyl)-5,6,7,8-tetrahydrothiazolo[5,4-b]quinoline-2-carboxamide] | 940 |
| CC(C)(C)[C@H]1CCc2nc3sc(C(=O)N[C@H](CCN4CCC(O)CC4)c4ccc(-c5c[nH]nc5C#N)cc4)nc3cc2C1 (racemic) [Example 166, rac-(7S)-7-tert-butyl-N-[rac-(1R)-1-[4-(3-cyano-1H-pyrazol-4-yl)phenyl]-3-(4-hydroxypiperidin-1-ium-1-yl)propyl]-5,6,7,8-tetrahydrothiazolo[5,4-b]quinoline-2-carboxamide; 2,2,2-trifluoroacetate] | 614 |
| COC(=O)C1CN(C(=O)c2cccc([C@@H](CCN3CCC(O)CC3)NC(=O)c3nc4cc5c(nc4s3)CC[C@H](C(C)(C)C)C5)c2)CCO1 (mixture of isomers) [Example 160, methyl 4-[3-[rac-(1R)-3-(4-hydroxy-1-piperidyl)-1-[[rac-(7S)-7-tert-butyl-5,6,7,8-tetrahydrothiazolo[5,4-b]quinoline-2-carbonyl]amino]propyl]benzoyl]morpholine-2-carboxylate] | 1210 |
| COC(=O)C1CCN(CC[C@@H](NC(=O)c2nc3cc4c(nc3s2)CC[C@@](F)(C(C)C)C4)c2ccc(-c3ccnnc3)nc2)CC1 [Example 269, methyl 1-((R)-3-((S)-7-fluoro-7-isopropyl-5,6,7,8-tetrahydrothiazolo[5,4-b]quinoline-2-carboxamido)-3-(6-(pyridazin-4-yl)pyridin-3-yl)propyl)piperidine-4-carboxylate] | 1850 |
| CN(C)CC[C@@H](NC(=O)c1nc2cc3c(nc2s1)CC[C@H](C(C)(C)C)C3)c1cccc(C(=O)N2CCOCC2)c1 (racemic) [Example 96, rac-(7S)-7-tert-butyl-N-[rac-(1R)-3-(dimethylamino)-1-[3-(morpholine-4-carbonyl)phenyl]propyl]-5,6,7,8-tetrahydrothiazolo[5,4-b] quinoline-2-carboxamide] | 1020 |
| CC(C)(C)[C@H]1CCc2nc3sc(C(=O)N[C@H](CCN4CCC(O)CC4)c4ccc(N5CCOC5=O)cc4)nc3cc2C1 [Example 230, (S)-7-(tert-butyl)-N-((R)-3-(4-hydroxypiperidin-1-yl)-1-(4-(2-oxooxazolidin-3-yl)phenyl)propyl)-5,6,7,8-tetrahydrothiazolo[5,4-b]quinoline-2-carboxamide] | 1020 |
